Where two headings read alike, the source gives them in different places.
Tests used:
[1] = tested on: CYP3A4, CYP2D6, CYP2C9, CYP2C19, CYP1A2; assay: Inhibition of CYP450, five isoform panel; assay type: in vitro ADME; conditions: human, CYP450 isoform inhibition kit (BD Biosciences), 3A4, 2D6, 2C9, 2C19, 1A2, read-out: % inhibition of CYP450 isoforms
Protocol: A HepG2 cytotoxicity assay was used to determine a cellular selectivity index. HepG2 cells were seeded into 96-well plates in EMEM medium. Compounds were assessed for their effect upon cellular viability (Supplementary Methods 5.1). Inhibition of CYP450 was determined using kits from BD Biosciences (Supplementary Methods 5.2). Metabolic stability was determined using mouse […] tested at a single concentration of 5 µM. Plasma protein binding was determined using mouse and human plasma at a single concentration of 10 µM (Supplementary Methods 5.4). All PK studies in mice were carried out by Pharmidex (Supplementary Methods 6.1).
The compounds were investigated for their inhibitory effect on cytochrome P450 (CYP450) activity using five CYP450 isoforms (with fluorescent substrates in brackets): 3A4 (two substrates, BFC and DBF), 2D6 (AMMC), 2C9 (MFC), 2C19 (CEC) and 1A2 (CEC). Kits from BD Biosciences were used along with the method described by the manufacturer. […] Fluorescence was measured using a SpectraMax M5 plate reader.

[2] = Human hepatocytes intrinsic clearance; assay type: in vitro ADME
From the text: Methods are described in Supplementary Methods 5 and 6. Enzyme assay results are means ± SD in multiple assays. ADME results are averages of n = 2 or 3 measurements in individual assays.

[3] = target: T1, TbPFK (Trypanosoma brucei brucei, UniProt O15648); assay: Isothermal titration calorimetry (ITC); assay type: binding; conditions: 25 °C
T1 construct: made in house; host or cells: Escherichia coli C41 (pET28a, codon optimised gene)
T1 sequence (O15648 1-487): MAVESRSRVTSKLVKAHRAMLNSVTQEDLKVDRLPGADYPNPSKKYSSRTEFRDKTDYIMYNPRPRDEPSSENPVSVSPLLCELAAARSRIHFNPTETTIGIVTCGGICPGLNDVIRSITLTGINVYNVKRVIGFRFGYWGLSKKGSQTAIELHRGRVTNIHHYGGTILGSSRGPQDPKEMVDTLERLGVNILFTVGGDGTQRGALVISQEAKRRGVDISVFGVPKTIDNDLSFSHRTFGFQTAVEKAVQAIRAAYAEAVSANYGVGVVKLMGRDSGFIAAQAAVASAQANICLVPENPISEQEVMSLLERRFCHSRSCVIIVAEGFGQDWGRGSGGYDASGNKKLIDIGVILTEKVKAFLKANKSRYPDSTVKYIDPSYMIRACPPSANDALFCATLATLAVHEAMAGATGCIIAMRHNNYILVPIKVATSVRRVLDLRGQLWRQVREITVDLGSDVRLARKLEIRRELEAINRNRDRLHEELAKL

[4] = Brain and plasma concentrations in mice after oral dose; assay type: in vivo; conditions: female, CD-1, mouse, single oral dose of 50 mg kg^−1, 2 h
Protocol: These values for concentrations of free compound in the brain give a Kp,uu value of 0.6 (defined as the ratio of unbound compound in brain to unbound compound in plasma). This ratio provides an estimate of the amount of free drug in the brain interstitial fluid as being just over half the free concentration in the blood.
Blood samples were collected from terminal cardiac puncture at 0.08 (IV only), 0.25, 0.5, 1 (PO only), 2, 4, 8 and 24 hour time points. The whole blood was centrifuged to obtain plasma. Brains were also collected following cardiac perfusion from both sets of animals at 2 hours. Analysis of the biological samples was carried out by the company Selcia. Plasma proteins were precipitated by addition of PBS (1 volume) followed by 3 volumes of acetonitrile containing internal standard (verapamil). Following filtration through a protein precipitation plate the eluent was dried under nitrogen and re-suspended in mobile phase prior to analysis. Individual brains were homogenised in PBS and diluted to 10% w/v and divided into aliquots consisting of brain homogenate (1 volume, 0.3 ml) and 3 volumes (0.9 ml) of acetonitrile containing internal standard. Samples were centrifuged and supernatants removed and taken through a protein precipitation plate alongside an appropriate standard. […] Eluents were analysed by LC-MS/MS using a Phenomenex Gemini NX column (C18,30 x 2.1 mm, 3 micron). […]

Structure (SMILES): CN(C)CCn1ccc2c(ccn2Cc2ccc(F)c(Br)c2)c1=O [CTCB-508, 1-[(3-Bromo-4-fluorophenyl)methyl]-5-[2-(dimethylamino)ethyl] pyrrolo[3,2-c]pyridin-4-one]
- inhibition at 10 µM [1]: ≤ 10%

Structure (SMILES): CN(C)CCn1ccc2c(ccn2Cc2ccc(Cl)c(Cl)c2)c1=O [CTCB-405, 1-[(3,4-Dichlorophenyl)methyl]-5-[2-(dimethylamino)ethyl] pyrrolo[3,2-c]pyridin-4-one]
- Human hepatocytes Clint [2]: 2.3 µL min^−1 per 10^6 cells
- Kd [3]: 92 nM
- TΔS contribution ([3]; ITC): -4.03 kcal/mol
- ΔG ([3]; ITC): -9.57 kcal/mol
- ΔH ([3]; ITC): -13.6 kcal/mol
- concentration at 2 h ([4]; brain homogenate, read-out: mean concentration in brain homogenate): 1510 ng/g
- concentration at 2 h ([4]; plasma, read-out: mean plasma concentration): 366 ng/mL
